Results as given in US5391555A, “Methods for treating inflammatory bowel disease with leukotriene synthesis inhibitors” (Miles Inc., priority 1993, dated 1995).
pIC50: −log10 of the molar value.

How the values were obtained:
human bronchial muscle = human bronchial muscle contraction stimulated by anti-human IgE; assay type: cell-based; details: for pIC50: contraction stimulated by anti-human IgE (1/1000), read-out: ED50 human bronchial muscle
Experimental: For the measurement of human bronchial muscle contraction, bronchial rings were obtained from patients undergoing surgical resection of the lungs typical for lung cancer. The muscle rings were set up in organ baths under an initial load of 3 g and contracted with 100 μM acetylcholine in Tyrode's solution to provide a standardized contraction. The organs were then washed until they returned to the baseline tension in Tyrode's solution containing atropine 1 μM, indomethacin 3 μM and polaramine 1 μM at 37° C.
Contraction was stimulated by the treatment of the muscle strips with anti-human IgE (1/1000) with or without LSI. The intensity of the contractions were expressed as the percentage of the acetylcholine-inducedcontraction. The percentage of inhibition by the LSI was calculated from the ratio of the relative contractions. The activity of several of the well known LSIs of other structural classes (Zileuton & MK886) are compared below with the quinolines of the present invention.

[1] = test system: LTB4 / human blood polymorphonuclear leukocytes (PMN); assay: response of human blood polymorphonuclear leukocytes (PMN): A23187-stimulated LTB4 in human whole blood; assay type: cell-based; details: Leukocyte, 0.5 h, LTB4, 30 μM ionophore A23187, 30 min, 37° C., read-out: ED50 human whole blood
Experimental: For evaluation of the response of human blood polymorphonuclear leukocytes (PMN), 0.5 ml aliquots of human blood with heparin as the anticoagulant are preincubated for 10 minutes with 2 μl dimethylsulfoxide (DMSO) alone or with DMSO containing the compound to be tested (shaken in water bath at 37° C.).
The PMN are then stimulated with a final concentration 30 μM of the ionophore A23187 for 30 minutes at 37° C. The reaction is terminated with 1 ml methanol. The incubate is cooled 20 minutes in an ice bath, vortexed, then centrifuged at 13,000 g.
The amount of LTB4 present in the removed supernatant is analysed by HPLC and/or radioimmune assays.

edema of the mouse ear = assay: Mouse Ear Inflammation Test (arachidonic acid-induced edema); assay type: in vivo; details: oral, 60 minutes before arachidonic acid, swelling at 30 minutes, averaged over several experiments, read-out: Edema formation - ED50
Experimental: Because it is known that leukotrienes are the major mediators of the edema which follows the application of arachidonic acid on the skin of the mouse ear and because the human clinical trials have implicated leukotrienes in the pathology of Inflammatory Bowel Disease (IBD), the mouse ear inflammation test can be used as a model to predict efficacy in IBD.
In this test edema is induced by the topical application of 10 μl of a 20% arachidonic acid solution on the mouse ear. 60 minutes before arachidonic acid application the animals were treated orally with compound or vehicle. 30 minutes after the induction of inflammation the swelling of the ear was measured. The results averaged over several experiments are shown below.

bronchodilator in man = details: compared with prediction from inhibition of neutrophil-dependent LTB4 synthesis at blood concentration; cited from earlier work
[2] = test system: TNBS-induced colitis in rats; assay: TNBS-induced colitis in rats: colonic damage; assay type: in vivo, Male Wistar rats; details: 30 and 100 mg/kg orally bid, 7 days; 14 days following induction; vs placebo
Experimental: (§1) A colitis resembling human ulcerative colitis can be induced in rats by the intracolonic infusion of trinitrobenzene sulfonic acid (Wallace et al., 1990, Am J Physiol. 258:G527-34).
(§2) Male Wistar rats were lightly anesthetized with ether, and a 2.3 mm rubber cannula inserted into the lumen of the colon via the anus. The cannula was advanced so that the tip was approximately 8 cm proximal to the anus. Colitis is induced by the administration of 0.25 ml of 50% ethanol (vol/vol) containing 30 mg of 2,4,6-trinitrobenzene sulfonic acid (TNB) through the cannula. After instilling the TNB-ethanol solution, the cannula was left in place for a few seconds then gently removed.
(§3) Animals were sacrificed at various time intervals after the administration of TNB-ethanol for examination of the level of LTB4 in the tissue and for histological examination.
R-(-)-2-cyclopentyl-2-[4-(2-quinolinyl-methoxy)-phenyl]-acetic acid, at doses of 30 and 100 mg/kg or placebo is administered orally to these animals bid beginning 2 hours before induction of colitis and continuing for the next 7 days. Two hours after the administration of the test compound, animals are sacrificed and samples of the grossly inflammed colonic tissue are excised and incubated in vitro for 20 minutes. […]

LTB4 = assay: TNBS-induced colitis in rats: LTB4 synthesis by excised colonic tissue; assay type: in vivo, Male Wistar rats; details: 30 and 100 mg/kg orally bid, 7 days; tissue incubated in vitro 20 minutes
Experimental: as §1, §2, §3
(§4) R-(-)-2-cyclopentyl-2-[4-(2-quinolinyl-methoxy)-phenyl]-acetic acid, at doses of 30 and 100 mg/kg or placebo is administered orally to these animals bid beginning 2 hours before induction of colitis and continuing for the next 7 days. Two hours after the administration of the test compound, animals are sacrificed and samples of the grossly inflammed colonic tissue are excised and incubated in vitro for 20 minutes.

TxB2 = assay: TNBS-induced colitis in rats: TxB2 synthesis by excised colonic tissue; assay type: in vivo, Male Wistar rats; details: 30 and 100 mg/kg orally bid, 7 days; tissue incubated in vitro 20 minutes
Experimental: as §1, §2, §3, §4

[3] = test system: Dextran Sulfate-induced colitis in mice; assay: Dextran Sulfate-induced colitis in mice; assay type: in vivo; details: 10 mg/kg or 30 mg/kg orally bid; 5% dextran sulfate in drinking water
Source text: Mice, when provided 5% high molecular weight dextran sulfate in their drinking water for 5-7 days, develop an acute colitis with diarrhea, gross rectal bleeding, and weight loss (Okayasu et al., 1990, Gastroenterol, 98:694-702).

| SMILES | pIC50 (human bronchial muscle) | pIC50 [1] | ED50 (edema of the mouse ear) [mg/kg] | also measured |
| --- | --- | --- | --- | --- |
| CC(C)Cc1cc(C(C(=O)O)C2CCCCCC2)ccc1OCc1ccc2ccccc2n1 (single isomer, unassigned; (-)) [Formula III, (-)-2-cycloheptyl-2-[3-isobutyl-4-(2-quinolinyl-methoxy)-phenyl]-acetic acid] | 6.00 | 5.52 | 12.5 |  |
| CC(c1cc2ccccc2s1)N(O)C(N)=O (stereo not drawn) [Zileuton, reference compound] |  | 6.16 | 47.4 | inhibition at 1 µM (human bronchial muscle; @ 1 μM, anti-human IgE (1/1000), read-out: percentage of inhibition, human bronchial muscle): 4% |
| O=C(O)[C@@H](c1ccc(OCc2ccc3ccccc3n2)cc1)C1CCCC1 [Formula I, R-(-)-2-cyclopentyl-2-[4-(2-quinolinyl-methoxy)-phenyl]-acetic acid] | 6.10 | 4.77 | 48.7 | activity as a bronchodilator in man (bronchodilator in man): considerably greater than would have been predicted; frequency and extent of the ulcerations [2]: reduces both the frequency of adhesions and the frequency and extend of the ulcerations; frequency of adhesions [2]: reduces both the frequency of adhesions; synthesis of LTB4 in culture supernatants of inflamed colonic tissue (LTB4): markedly inhibited; synthesis of TxB2 in culture supernatants of inflamed colonic tissue (TxB2): not of TxB2 |
| O=C(O)C(O)(c1ccc(OCc2ccc3ccccc3n2)cc1)C1Cc2ccccc2C1 (single isomer, unassigned; (-)) [Formula IV, (-)-2-hydroxy-2-(2-indanyl)-2-[4-(2-quinolinyl-methoxy)-phenyl]-acetic acid] | 7.00 | 5.35 | 15 |  |

More lines, main results first:

| pIC50 (human bronchial muscle) | pIC50 [1] | SMILES | ED50 (edema of the mouse ear) [mg/kg] | also measured |
| --- | --- | --- | --- | --- |
|  | 6.37 | CC(C)c1ccc2c(c1)c(SC(C)(C)C)c(CC(C)(C)C(=O)O)n2Cc1ccc(Cl)cc1 [MK886, reference compound] | ~100 | percentage of inhibition, human bronchial muscle (human bronchial muscle; @ μM (concentration not given), anti-human IgE (1/1000)): 0-39% |
| 6.10 | 5.96 | CS(=O)(=O)NC(=O)[C@@H](c1ccc(OCc2ccc3ccccc3n2)cc1)C1CCCCCC1 [Formula II, R-(-)-2-cycloheptyl-N-methylsulfonyl-2-[4-(2-quinolinyl-methoxy)-phenyl]-acetamide] | 5.2 | occult blood in the stool [3]: reduction in occult blood in the stool; stool consistency [3]: improvement in stool consistency; symptoms of colitis [3]: decrease in the symptoms of colitis; weight loss [3]: reduction in weight loss |
